From US4904669A, “Thiazolo/4,5-c/quinolines as major tranquilizers” (EGIS Gyogyszergyar, priority 1985, dated 1990)

Columns and labels:
[1] = tested on: writhing; assay: Writhing test (peritoneal), acetic acid; assay type: in vivo; details: Mus musculus, mice, acetic acid i.p.
Procedure: The method originally described by […] (1956) for rats modified by Witkin et al. (1961) and Koster and Anderson (1959), respectively, for mice was applied. Each dose was administered to a group of ten mice and after 20 min. 60 mg/kg of 0.6% acetic acid solution was injected i.p. As a result of chemical irritation of the peritoneum a characteristic writhing can be observed in 90% of control animals. Ten animals treated with compounds under test were kept under observation for 20 min. following i.p. injection of acid. The analgetic effect of individual doses was expressed in per cent: [formula] The denominator was taken as 90% on the basis of preliminary control examination and the […] literature.

[2] = tested on: conditioned avoidance reflex (CAR); assay: Shuttle-box, acquisition of two-way conditioned avoidance reflex (CAR); assay type: in vivo
Procedure: The acquisition of a two-way conditioned avoidance reflex (CAR) was analyzed in the shuttle-box during 5 consecutive days.
The instrument was constructed by the Research Institute for Electrical Industry (Hungary). It consists of six boxes, each is separated inside by a barrier with a small gate in the middle. […] They were given 100 trials per day. One trial consisted of 15 s intertrial interval, followed by 15 s CS. The last 5 s of CS overlapped the […]. At each learning session the number of CAR and intersignal reactions (IR) was automatically counted and evaluated by multiway analysis of variance (ANOVA).

[3] = Acute toxicity (Litchfield and Wilcoxon); details: rat, in vivo, deaths within 48 h
[4] = tested on: pain reactions; assay: Hot plate test; assay type: in vivo, rats; details: Rattus norvegicus, 56° C. plate, 1 h after administration
Procedure: The method of Woolfe and McDonald (1944) modified by Porszasz and Herr (1950) was used. The effect of each dose of the drugs was checked on a group of 10 rats. The experiments were performed on metal plates maintained at 56° C. The latency time of pain reactions was determined prior to and 1 h after the administration of the test compound. It was regarded as 100% effect if the reaction time was prolonged by more than 2.5 times the control value.

[5] = tested on: Benzodiazepine (BZD) receptor; assay: Benzodiazepine (BZD) receptor binding, displacement of 3H-diazepam; details: crude cortical membrane, 1 hr at 0° C., pH 6.8; control drug
Procedure: 10. For the Studies of Benzodiazepine (BZD) Receptor Binding crude cortical membrane preparation was used. 2/ μM ^3 H-diazepam was incubated with the membrane for 1 hr at 0° C. in TRIS-citrate buffer, pH 6.8. Specific binding was determined in the presence of 10/ μM diazepam. In displacement studies chlordiazepoxid was used as control drug.

[6] = tested on: conditioned reflex (CR) / unconditioned reflex (UR); assay: Screening test, learning and retention during one session conditioning; assay type: in vivo, rats
Procedure: I was elaborated for studing learning and retention of rats during one session conditioning.
During conditioning rats are trained to jump onto the top of glass cylinder by the electric foot-shock (110 V). The escape reaction (unconditioned reflex, UR) is paired with a bell as conditioned stimulus. The criterion of learning is that conditioned reflex (CR) should be elicited 10 times with 10 s intervals without reinforcement. Retention of CR is taken positive when 24 h following the experiment CR can be elicited. In these experiments animals are distributed into 4 categories on the basis of their learning ability.

## c1ccc2c(c1)ncc1ncsc12 [Thiazolo[4,5-c]quinoline-ethanesulfonate, thiazolo[4,5-c]quinoline-ethanesulfonate]
[1]; po
  ED50: 70 mg/kg
[1]; sc
  ED50: 56 mg/kg
[2]; s.c., 10 mg/kg, day 1
  intersignal reactions (IR): 6.5
  negative responses (-f): 17.2
  positive responses (F), acquisition of conditioned reflex: 23.5
[2]; s.c., 10 mg/kg, day 2
  intersignal reactions (IR): 8.8
  negative responses (-f): 7.1
  positive responses (F), acquisition of conditioned reflex: 44.2
[2]; s.c., 10 mg/kg, day 3
  intersignal reactions (IR): 5.5
  negative responses (-f): 2.4
  positive responses (F), acquisition of conditioned reflex: 51.6
[2]; s.c., 10 mg/kg, day 4
  intersignal reactions (IR): 8.2
  negative responses (-f): 1.2
  positive responses (F), acquisition of conditioned reflex: 66.8
[2]; s.c., 10 mg/kg, day 5
  intersignal reactions (IR): 6.3
  negative responses (-f): 6.2
  positive responses (F), acquisition of conditioned reflex: 65.1
[2]; s.c., 25 mg/kg, day 1
  intersignal reactions (IR): 11.1
  negative responses (-f): 70.3
  positive responses (F), acquisition of conditioned reflex: 8.1
[2]; s.c., 25 mg/kg, day 2
  intersignal reactions (IR): 8.8
  negative responses (-f): 41.8
  positive responses (F), acquisition of conditioned reflex: 25.3
[2]; s.c., 25 mg/kg, day 3
  intersignal reactions (IR): 7.0
  negative responses (-f): 40.4
  positive responses (F), acquisition of conditioned reflex: 23.3
[2]; s.c., 25 mg/kg, day 4
  intersignal reactions (IR): 10.3
  negative responses (-f): 46.3
  positive responses (F), acquisition of conditioned reflex: 30.8
[2]; s.c., 25 mg/kg, day 5
  intersignal reactions (IR): 4.0
  negative responses (-f): 61.3
  positive responses (F), acquisition of conditioned reflex: 15.5
[2]; s.c., 50 mg/kg, day 1
  intersignal reactions (IR): 9.2
  negative responses (-f): 66.8
  positive responses (F), acquisition of conditioned reflex: 8.9
[2]; s.c., 50 mg/kg, day 2
  intersignal reactions (IR): 7.1
  negative responses (-f): 35.2
  positive responses (F), acquisition of conditioned reflex: 24.5
[2]; s.c., 50 mg/kg, day 3
  intersignal reactions (IR): 4.2
  negative responses (-f): 51.5
  positive responses (F), acquisition of conditioned reflex: 20.8
[2]; s.c., 50 mg/kg, day 4
  intersignal reactions (IR): 3.3
  negative responses (-f): 61.8
  positive responses (F), acquisition of conditioned reflex: 14.6
[2]; s.c., 50 mg/kg, day 5
  intersignal reactions (IR): 2.6
  negative responses (-f): 72.8
  positive responses (F), acquisition of conditioned reflex: 16.2
[3]; iv
  LD50 at 48 h: 51 mg/kg
[3]; po, starved 16 h
  LD50 at 48 h: 290 mg/kg
[3]; sc
  LD50 at 48 h: 280 mg/kg
[4]; po
  ED50: 72 mg/kg
[4]; sc
  ED50: 8 mg/kg

## CNC1=Nc2ccc(Cl)cc2C(c2ccccc2)=[N+]([O-])C1 [Chlordiazepoxide]
[2]; 10 mg/kg, in words
  number of negative responses (f): increased
[2]; 10 and 5 mg/kg
  acquisition of conditioned reflex: unchanged
[2]; 10 and 5 mg/kg, in words
  intersignal reactions (IR): unchanged
[2]; s.c., 5 mg/kg, day 1
  intersignal reactions (IR): 10.8
  negative responses (-f): 11.8
  positive responses (F), acquisition of conditioned reflex: 23.1
[2]; s.c., 5 mg/kg, day 2
  intersignal reactions (IR): 14.0
  negative responses (-f): 9.1
  positive responses (F), acquisition of conditioned reflex: 38.7
[2]; s.c., 5 mg/kg, day 3
  intersignal reactions (IR): 8.9
  negative responses (-f): 10.2
  positive responses (F), acquisition of conditioned reflex: 35.6
[2]; s.c., 5 mg/kg, day 4
  intersignal reactions (IR): 6.7
  negative responses (-f): 14.9
  positive responses (F), acquisition of conditioned reflex: 41.1
[2]; s.c., 5 mg/kg, day 5
  intersignal reactions (IR): 4.2
  negative responses (-f): 13.0
  positive responses (F), acquisition of conditioned reflex: 50.8
[2]; s.c., 10 mg/kg, day 1
  intersignal reactions (IR): 10.8
  negative responses (-f): 32.7
  positive responses (F), acquisition of conditioned reflex: 19.9
[2]; s.c., 10 mg/kg, day 2
  intersignal reactions (IR): 14.7
  negative responses (-f): 22.8
  positive responses (F), acquisition of conditioned reflex: 37.9
[2]; s.c., 10 mg/kg, day 3
  intersignal reactions (IR): 8.1
  negative responses (-f): 31.8
  positive responses (F), acquisition of conditioned reflex: 33.7
[2]; s.c., 10 mg/kg, day 4
  intersignal reactions (IR): 6.3
  negative responses (-f): 36.5
  positive responses (F), acquisition of conditioned reflex: 35.6
[2]; s.c., 10 mg/kg, day 5
  intersignal reactions (IR): 6.1
  negative responses (-f): 40.8
  positive responses (F), acquisition of conditioned reflex: 41.2
[2]; s.c., 25 mg/kg, day 1
  intersignal reactions (IR): 6.8
  negative responses (-f): 74.0
  positive responses (F), acquisition of conditioned reflex: 9.7
[2]; s.c., 25 mg/kg, day 2
  intersignal reactions (IR): 7.3
  negative responses (-f): 67.5
  positive responses (F), acquisition of conditioned reflex: 12.2
[2]; s.c., 25 mg/kg, day 3
  intersignal reactions (IR): 6.2
  negative responses (-f): 67.0
  positive responses (F), acquisition of conditioned reflex: 17.9
[2]; s.c., 25 mg/kg, day 4
  intersignal reactions (IR): 8.2
  negative responses (-f): 65.6
  positive responses (F), acquisition of conditioned reflex: 20.0
[2]; s.c., 25 mg/kg, day 5
  intersignal reactions (IR): 6.0
  negative responses (-f): 59.8
  positive responses (F), acquisition of conditioned reflex: 21.4
[5]
  displacement of 3H-diazepam on the receptor: displaced ^3 H-diazepam on the receptor in concentration dependent manner
[6]; 10 mg/kg
  inhibition of development of conditioned reflex: does not influence

## Cl.c1ccc2c(c1)ncc1ncsc12 [Thiazolo[4,5-c]quinoline-hydrochloride, thiazolo[4,5-c]quinoline-hydrochloride]
[1]; po
  ED50: 82 mg/kg
[1]; sc
  ED50: 32 mg/kg
[3]; iv
  LD50 at 48 h: 55 mg/kg
[3]; po, starved 16 h
  LD50 at 48 h: 350 mg/kg
[3]; sc
  LD50 at 48 h: 260 mg/kg
[4]; po
  ED50: 60 mg/kg
[4]; sc
  ED50: 7.5 mg/kg
[6]; 10 mg/kg
  inhibition of development of conditioned reflex: strong inhibition
[6]; 25 mg/kg
  inhibition of development of conditioned reflex: complete inhibition

## O=C(CCCN1CCC(O)(c2ccc(Cl)cc2)CC1)c1ccc(F)cc1 [haloperidol, reference compound]
[6]; 0.025 mg/kg
  inhibition of developing conditioned reflex: strong inhibition
